1 compound from US8053585B2, “Protecting group for carboxylic acids that can be photolyzed by visible light” (Cornell Research Foundation, Inc., priority 2006, dated 2011) can be followed below.

The structures appear in SMILES notation.

Data set [1] deals with GluR6 glutamate receptor. Description: Whole-cell current recording with cell-flow method, HEK 293 cells expressing GluR6. The format is cell-based. An excerpt: (§1) In whole-cell current recording experiments with DECM-caged glutamate, HEK 293 cells stably transfected with cDNA encoding the GluR6 were used. In whole-cell current recording experiments with DECM-caged glycine, HEK 293 cells were transiently transfected with the cDNA of the α1-subunit of the human glycine receptor by using the Polyfect™ transfection reagent (Qiagen GmbH, D-40724, Hilden, Germany). The cDNA of the α1-subunit was kindly provided by Professor H. Betz (Max-Plank-Institute for brain Research, Frankfurt, Germany). The cells were co-transfected with cDNA encoding the green fluorescent protein (pGreen Lantern plasmid, Life Technologies, Gaitherberg, Md.) to detect transfected cells (Chalfie et al., “Green Fluorescent Protein as a Marker for Gene Expression,” Science 263:802-805 (1994), which is hereby incorporated by reference in its entirety).
The cells were used for electrophysiological experiments between 24 and 72 h after each passage. Whole-cell currents evoked by glutamate or glycine (100 μM) were recorded using the whole-cell configuration (Hamill et al., “Improved Patch-Clamp Techniques for High-Resolution Current Recording From Cells and Cell-Free Membrane Patches,” Pfluegers Arch 391:85-100 (1981), which is hereby incorporated by reference in its entirety) at room temperature, −60 mV, and pH 7.4. The experiments using DECM-caged glutamate were carried out in the absence or presence of 2 mM DECM-caged glutamate (FIG. 5A) or 1 mM 7-N,N-diethylamino-4-hydroxymethylcoumarin (2) (FIG. 5B). Alternatively, the experiments using DECM-caged glycine were carried out in the absence or presence of 1 mM DECM-caged-glycine (FIG. 10). The solution in the recording pipet contained 120 mM CsCl, 10 mM EGTA, and 10 mM HEPES, adjusted to pH 7.4. The HEK cell bath solution contained 150 mM NaCl, 1 mM CaCl2, 10 mM HEPES, pH 7.4. The resistance of the recording electrode filled with buffer solution was typically 3-5 MΩ and the series resistance was 5-6 MΩ. The cells were held at a constant transmembrane voltage of −60 mV and room temperature (22° C.). […]

Data set [2] has as its system GluR6 glutamate receptor. The data set is described as follows: Stability in aqueous solution by whole-cell recording, cells used as glutamate detector. The format is cell-based. The settings on record: 2 mM solution, 24 h in the dark at −20° C., pH 7.4.
Description: as §1
The cells were used for electrophysiological experiments between 24 and 72 h after each passage. Whole-cell currents evoked by glutamate or glycine (100 μM) were recorded using the whole-cell configuration (Hamill et al., “Improved Patch-Clamp Techniques for High-Resolution Current Recording From Cells and Cell-Free Membrane Patches,” Pfluegers Arch 391:85-100 (1981), which is hereby incorporated by reference in its entirety) at room temperature, −60 mV, and pH 7.4. […]

As for `CCN(CC)c1ccc2c(COC(=O)CCC(N)C(=O)O)cc(=O)oc2c1` (stereo not drawn) [DECM-caged glutamate, (7-N,N-Diethylaminocoumarin-4-yl)-methyl-glutamate-trifluoroacetate], in data set [1] (2 mM DECM-caged glutamate, −60 mV, pH 7.4, 22° C.), the “whole-cell current evoked by 100 μM glutamate, presence vs absence of compound” value is on record as “do not inhibit”. In addition, in data set [1] (HEK-293 cells expressing glutamate receptors), the “biological activity at glutamate receptors (inhibition or activation)” value is “biologically inert”. Moreover, the “free glutamate in solution of caged compound” value in data set [2] is “no free glutamate was detected”.
